Assay: Stability of dissolution standards and dissolution samples at ambient lab conditions
Format: physicochemical
Method: 40.5±4.0 mg of valbenazine ditosylate reference standard (equivalent to 22.22 mg of valbenazine free base) was added to a 250-mL volumetric flask. Diluent (0.1 N HCl dissolution media) was added to the flask, up to about 75% of the volume of the flask. The contents of the flask were mixed well, and sonicated if necessary, to provide a standard solution containing 0.0889 mg/mL valbenazine free base. The standard was stable for 17 days, stored at ambient lab conditions.
10.12±1.0 mg of valbenazine ditosylate reference standard (equivalent to 5.55 mg of valbenazine free base) was added to a 250-mL volumetric flask. Diluent (0.1N HCl dissolution media) was added to the flask, up to about 75% of the volume of the flask. […]
(§1) Dissolution was measured according to Table 8, above. After completion of the dissolution, the end temperature and observations for each vessel were recorded. […]
as §1
(§2) Dissolution was measured according to Table 9, above. After completion of the dissolution, the end temperature and observations for each vessel were recorded. […]
as §2

COc1cc2c(cc1OC)[C@H]1C[C@@H](OC(=O)[C@@H](N)C(C)C)[C@H](CC(C)C)CN1CC2.Cc1ccc(S(=O)(=O)O)cc1.Cc1ccc(S(=O)(=O)O)cc1 [L-Valine, (2R,3R,11bR)-1,3,4,6,7,11b-hexahydro-9,10-dimethoxy-3-(2-methylpropyl)-2H-benzo[a]quinolizin-2-yl ester, 4-methylbenzenesulfonate (1:2)]
time the dissolution standard was stable (0.0222 mg/mL valbenazine free base in 0.1N HCl): 7 days | time the dissolution standard was stable (0.0889 mg/mL valbenazine free base in 0.1 N HCl): 17 days
